The values that follow come from patent publication US20240182465A1 (GENFLEET THERAPEUTICS (SHANGHAI) INC., priority 2021, published 2024).

Structures can show the parent of a compound that is named as a salt.

Assay [1] deals with T1, HPK1 (Homo sapiens, UniProt Q92918).
T1 sequence (Q92918 1-346 limits assumed): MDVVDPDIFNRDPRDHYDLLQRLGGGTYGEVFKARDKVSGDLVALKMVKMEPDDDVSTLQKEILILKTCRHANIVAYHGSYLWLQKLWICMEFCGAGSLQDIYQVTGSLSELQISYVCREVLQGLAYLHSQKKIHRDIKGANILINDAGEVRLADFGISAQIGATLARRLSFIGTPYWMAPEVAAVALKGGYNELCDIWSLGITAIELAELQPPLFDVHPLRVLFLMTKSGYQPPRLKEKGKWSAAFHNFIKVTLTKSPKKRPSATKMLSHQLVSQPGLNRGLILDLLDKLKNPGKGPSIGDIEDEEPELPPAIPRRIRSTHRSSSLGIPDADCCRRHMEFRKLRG
The experiment in a line: HPK1 kinase activity assay (ADP-Glo). Conditions: HPK1 Kinase activity IC50 (nM), 1 nM HPK1, 10 μM ATP, 0.1 μg/μL MBP.
Experimental: Preparation of buffer: 1× reaction buffer (40 mM Tris-HCl, 20 mM MgCl2, 0.01% Brij35, 50 μM DTT, 0.1 mg/ml BSA) was prepared using sterile water, which was prepared and used on the day of the experiment.
Preparation of 1000× drug stock plate: a 1000× compound stock plate was prepared. […] The compound stock plate was sealed with a sealing film and stored in a −20° C. refrigerator for later use.
Compound preparation and dosing: the 1000× drug stock plate was taken and melted at room temperature in the dark. Then 5× drug intermediate plate was prepared using reaction buffer and mixed well. 2 μL was transferred from the 5× drug intermediate plate into a 384-well plate, and negative control well and positive control well (in which 2 μL reaction buffer containing 0.5% DMSO was added) were set. Each point was repeated twice.
Preparation and incubation of reaction mixture: HPK1 protein was diluted to a 2.5× working solution with reaction buffer. 4 μL 2.5×HPK1 protein was added to each well containing test compound and positive control well, and 4 μL of reaction buffer without HPK1 protein was added to the negative control well. The obtained mixture was centrifuged at 1000 rpm for 1 min and then incubated in a 20° C. incubator for 15 min. A 2.5× mixed working solution of MBP protein and ATP was prepared with reaction buffer at concentrations of 0.5 μg/μL and 50 PM, respectively. 4 μL of the mixed working solution of MBP and ATP was added to each well, centrifuged at 1000 rpm for 1 min, and then incubated in a 20° C. incubator for 90 min.
ADP-Glo detection and reading plate: 10 μl ADP-Glo was added to each well of the test plate. The resulting mixture was centrifuged at 1000 rpm for 1 min and incubated in a 20° C. incubator for 60 min. Then 10 μL of the final incubation solution was transferred from the test plate to a new 384-well plate. 10 μL of kinase detection reagent was added to each well, centrifuged at 400 g for 1 min, and incubated in a 20° C. incubator for 60 min. Chemiluminescent signals were read by a microplate reader.

Assay [2] deals with HPK1 (Homo sapiens, UniProt Q92918). The experiment in a line: SLP76 phosphorylation assay (intracellular HPK1 inhibitory activity, p-SLP76 Ser376 sandwich ELISA). The conditions noted are these: p-SLP76 IC50(nM), Jurkat, Clone E6-1 cells; 1 h compound pre-incubation, anti-CD3 beads stimulation 20 min; SLP76 phosphorylation at S376.
Target sequence in this assay (Q92918 whole entry): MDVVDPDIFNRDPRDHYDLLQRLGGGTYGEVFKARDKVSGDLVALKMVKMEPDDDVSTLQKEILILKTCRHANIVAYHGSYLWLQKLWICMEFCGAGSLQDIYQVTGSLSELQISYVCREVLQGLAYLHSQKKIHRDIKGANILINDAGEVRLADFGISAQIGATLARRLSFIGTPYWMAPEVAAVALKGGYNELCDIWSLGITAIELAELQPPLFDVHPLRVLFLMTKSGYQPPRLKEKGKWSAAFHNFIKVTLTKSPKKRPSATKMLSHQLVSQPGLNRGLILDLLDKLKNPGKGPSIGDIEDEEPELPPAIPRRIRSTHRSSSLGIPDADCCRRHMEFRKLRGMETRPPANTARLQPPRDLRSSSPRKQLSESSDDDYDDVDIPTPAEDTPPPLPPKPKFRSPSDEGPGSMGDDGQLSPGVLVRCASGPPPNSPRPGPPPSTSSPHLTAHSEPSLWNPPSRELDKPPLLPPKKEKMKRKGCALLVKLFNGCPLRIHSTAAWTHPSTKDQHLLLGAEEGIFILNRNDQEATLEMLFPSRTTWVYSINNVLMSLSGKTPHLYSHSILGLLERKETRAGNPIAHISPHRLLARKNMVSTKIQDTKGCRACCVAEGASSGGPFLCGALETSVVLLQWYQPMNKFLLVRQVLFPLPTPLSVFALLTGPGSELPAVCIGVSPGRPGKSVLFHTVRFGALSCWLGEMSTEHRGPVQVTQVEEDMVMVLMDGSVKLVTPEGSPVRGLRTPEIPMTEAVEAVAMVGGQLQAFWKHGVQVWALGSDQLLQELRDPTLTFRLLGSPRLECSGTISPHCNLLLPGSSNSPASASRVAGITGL

Consider `CCN1Cc2cc(-c3cnc4[nH]cc(C)c4c3)cc([C@@H]3CCCN3)c2CC1=O` [Compound Z292, (S)-2-ethyl-7-(3-methyl-1H-pyrrolo[2,3-b]pyridin-5-yl)-5-(pyrrolidin-2-yl)-1,4-dihydroisoquinolin-3(2H)-one], for which the figures for the IC50 in assay [1] and in assay [2] were 0.97 nM and 272 nM, respectively.
The matching figures for `Cc1c[nH]c2ncc(-c3cc4c(c([C@@H]5CCCN5)c3)CCN(C(=O)[C@@H]3CCOC3)C4)cc12` [Compound Z293, (7-(3-methyl-1H-pyrrolo[2,3-b]pyridin-5-yl)-5-((S)-pyrrolidin-2-yl)-3,4-dihydroisoquinolin-2(1H)-yl) ((R)-tetrahydrofuran-3-yl)methanone]: 0.47 nM and 113 nM.
In the same order, the values of `Cc1c[nH]c2ncc(-c3cc4c(c([C@@H]5CCCN5)c3)CCN(C(=O)[C@H]3CCOC3)C4)cc12` [Compound Z294, (7-(3-methyl-1H-pyrrolo[2,3-b]pyridin-5-yl)-5-((S)-pyrrolidin-2-yl)-3,4-dihydroisoquinolin-2(1H)-yl) ((S)-tetrahydrofuran-3-yl)methanone] are 0.52 nM and 95.3 nM.
The matching figures for `CCNC(=O)N1CCc2c(cc(-c3cnc4[nH]cc(C)c4c3)cc2[C@@H]2CCCN2)C1` [Compound Z295, (S)—N-ethyl-7-(3-methyl-1H-pyrrolo[2,3-h]pyridin-5-yl)-5-(pyrrolidin-2-yl)-3,4-dihydroisoquinoline-2(1H)-carboxamide]: 1.22 nM and 214 nM.
For `Cc1c[nH]c2ncc(-c3cc4c(c(C5COCCN5)c3)CN(C(=O)[C@](C)(O)C(F)(F)F)CC4)cc12` (stereo partly drawn) [Compound Z296, (2S)-3,3,3-trifluoro-2-hydroxy-2-methyl-1-(6-(3-methyl-1H-pyrrolo[2,3-b]pyridin-5-yl)-8-(morpholin-3-yl)-3,4-dihydroisoquinolin-2(1H)-yl)propan-1-one], the figures for the half-maximal inhibitory concentration (IC50) in assay [1] and in assay [2] were 0.86 nM and 223 nM, respectively.
The matching figures for `CNCc1cc(-c2cnc3[nH]cc(C)c3c2)cc2c1COCC2` [Compound Z298, N-methyl-1-(6-(3-methyl-1H-pyrrolo[2,3-b]pyridin-5-yl)isochroman-8-yl)methanamine]: 3.3 nM and 668 nM.
The matching figures for `Cc1c[nH]c2ncc(-c3cc4c(c([C@@H]5CCCN5)c3)CCN(C(=O)C(C)(C)C)C4)cc12` [Compound Z300, (S)-2,2-dimethyl-1-(7-(3-methyl-1H-pyrrolo[2,3-b]pyridin-5-yl)-5-(pyrrolidin-2-yl)-3,4-dihydroisoquinolin-2(1H)-yl)propan-1-one]: 0.64 nM and 274 nM.
In the same order, the values of `Cc1c[nH]c2ncc(-c3cc4c(c([C@@H]5CCCN5)c3)CCN(C(=O)C(C)(C)O)C4)cc12` [Compound Z301, (S)-2-hydroxy-2-methyl-1-(7-(3-methyl-11H-pyrrolo[2,3-b]pyridin-5-yl)-5-(pyrrolidin-2-yl)-3,4-dihydroisoquinolin-2(1H)-yl)propan-1-one] are 0.61 nM and 254 nM.
Regarding `Cc1c[nH]c2ncc(-c3cc4c(c([C@@H]5CCCN5)c3)CCN(C(=O)C3CC3)C4)cc12` [Compound Z302, (S)-cyclopropyl (7-(3-methyl-1H-pyrrolo[2,3-b]pyridin-5-yl)-5-(pyrrolidin-2-yl)-3,4-dihydroisoquinolin-2(1H)-yl)methanone], the IC50 turned out to be 0.93 nM in assay [1] and 125 nM in assay [2].
In the same order, the values of `COC(=O)N1CCc2c(cc(-c3cnc4[nH]cc(C)c4c3)cc2[C@@H]2CCCN2)C1` [Compound Z305, methyl (S)-7-(3-methyl-1H-pyrrolo[2,3-b]pyridin-5-yl)-5-(pyrrolidin-2-yl)-3,4-dihydroisoquinoline-2(1H)-carboxylate] are 0.84 nM and 297 nM.
The matching figures for `Cc1c[nH]c2ncc(-c3cc4c(c([C@@H]5CCCN5)c3)CN(C(=O)c3cnn(CC(F)F)c3)CC4)cc12` [Compound Z306, (S)-[1-(2,2-difluoroethyl)pyrazol-4-yl]-[6-(3-methyl-1H-pyrrolo[2,3-b]pyridin-5-yl)-8-[pyrrolidin-2-yl]-3,4-dihydro-1H-isoquinolin-2-yl]methanone]: 0.64 nM and 170 nM.
The matching figures for `Cc1c[nH]c2ncc(-c3cc4c(c([C@@H]5CCCN5)c3)CCN(c3ccnn3C)C4)cc12` [Compound Z307, (S)-2-(1-methyl-1H-pyrazol-5-yl)-7-(3-methyl-1H-pyrrolo[2,3-b]pyridin-5-yl)-5-(pyrrolidin-2-yl)-1,2,3,4-tetrahydroisoquinoline]: 0.53 nM and 277 nM.
On to `Cc1c[nH]c2ncc(-c3cc4c(c([C@@H]5CCCN5)c3)CCN(CC(F)(F)F)C4)cc12` [Compound Z308, (S)-7-(3-methyl-1H-pyrrolo[2,3-b]pyridin-5-yl)-5-(pyrrolidin-2-yl)-2-(2,2,2-trifluoroethyl)-1,2,3,4-tetrahydroisoquinoline], for which the IC50 was determined as 2.06 nM in assay [1] and 441 nM in assay [2].
In the same order, the values of `Cc1c[nH]c2ncc(-c3cc4c(c([C@@H]5CCCN5)c3)CCN(C(=O)C3(O)CC3)C4)cc12` [Compound Z310, (S)-(1-hydroxycyclopropyl)(7-(3-methyl-1H-pyrrolo[2,3-b]pyridin-5-yl)-5-(pyrrolidin-2-yl)-3,4-dihydroisoquinolin-2(1H)-yl)methanone] are 1.79 nM and 567 nM.
The matching figures for `Cc1c[nH]c2ncc(-c3cc4c(c([C@@H]5CCCN5)c3)CCN(C(=O)CC3CCOCC3)C4)cc12` [Compound Z311, 1-[7-(3-methyl-1H-pyrrolo[2,3-b]pyridin-5-yl)-5-[(2S)-tetrahydro-1H-pyrrol-2-yl]-1,2,3,4-tetrahydroisoquinolin-2-yl]-2-(3,4,5,6-tetrahydro-2H-pyran-4-yl)ethan-1-one]: 0.56 nM and 146 nM.
The matching figures for `Cc1c[nH]c2ncc(-c3cc4c(c([C@@H]5CCCN5)c3)CCN(C(=O)C3CCOCC3)C4)cc12` [Compound Z312, (S)-1-[7-(3-methyl-1H-pyrrolo[2,3-b]pyridin-5-yl)-5-[pyrrolidin-2-yl]-3,4-dihydroisoquinolin-2(1H)-yl](tetrahydro-2H-pyran-4-yl)methanone]: 0.47 nM and 88.4 nM.
Consider `Cc1c[nH]c2ncc(-c3cc4c(c([C@@H]5CCCN5)c3)CN(c3ccncn3)CC4)cc12` [Compound Z315, (S)-6-(3-methyl-1H-pyrrolo[2,3-b]pyridin-5-yl)-2-(pyrimidin-4-yl)-8-(pyrrolidin-2-yl)-1,2,3,4-tetrahydroisoquinoline], for which the IC50 in assay [1] was determined as 0.29 nM; in assay [2], 225 nM.
In the same order, the values of `Cc1c[nH]c2ncc(-c3cc4c(c([C@@H]5COCCN5)c3)CN(S(C)(=O)=O)CC4)cc12` [Compound Z316, 2-(methyldioxo-λ6-sulfanyl)-6-(3-methyl-1H-pyrrolo[2,3-b]pyridin-5-yl)-8-[(3R)-1,4-oxazecyclohex-3-yl]-1,2,3,4-tetrahydroisoquinoline] are 0.74 nM and 314 nM.
In the same order, the values of `Cc1c[nH]c2ncc(-c3cc4c(c([C@@H]5COCCN5)c3)CN(C(=O)[C@@](C)(O)C(F)(F)F)CC4)cc12` [Compound Z317, (R)-3,3,3-trifluoro-2-hydroxy-2-methyl-1-[6-(3-methyl-1H-pyrrolo[2,3-b]pyridin-5-yl)-8-[(R)-morpholin-3-yl]-3,4-dihydroisoquinolin-2(1H)-yl]propan-1-one] are 0.88 nM and 200 nM.
With `Cc1c[nH]c2ncc(-c3cc4c(c([C@@H]5CCCN5)c3)CN(C(=O)c3cnn(C5CC5)c3)CC4)cc12` [Compound Z319, (S)-(1-cyclopropyl-1H-pyrazol-4-yl)(6-(3-methyl-1H-pyrrolo[2,3-b]pyridin-5-yl)-8-(pyrrolidin-2-yl)-3,4-dihydroisoquinolin-2(1H)-yl)methanone], the IC50 in assay [1] was 0.28 nM; in assay [2], 111 nM.
`Cc1cc(N2CCc3cc(-c4cnc5[nH]cc(C)c5c4)cc([C@@H]4CCCN4)c3C2)ccn1` [Compound Z320, (S)-6-(3-methyl-1H-pyrrolo[2,3-b]pyridin-5-yl)-2-(2-methylpyridin-4-yl)-8-(pyrrolidin-2-yl)-1,2,3,4-tetrahydroisoquinoline formate]: the IC50 in assay [1] stood at 0.73 nM; in assay [2], 121 nM.
As to `c1cn2ccc(-c3c[nH]c4ncc(-c5cc6c(c([C@@H]7CCCN7)c5)COCC6)cc34)cc2n1` [Compound Z323], the values for the IC50 in assay [1] and in assay [2] were 0.49 nM and 204 nM, respectively.
For the molecule `Cc1c[nH]c2ncc(-c3cc4c(c([C@@H]5CCCN5)c3)CN(C(=O)c3ccnc(C(C)(C)O)c3)CC4)cc12` [Compound Z327, (S)-(2-(2-hydroxypropan-2-yl)pyridin-4-yl)(6-(3-methyl-1H-pyrrolo[2,3-b]pyridin-5-yl)-8-(pyrrolidin-2-yl)-3,4-dihydroisoquinolin-2(1H)-yl)methanone], the values for the IC50 in assay [1] and in assay [2] were 0.33 nM and 150 nM, respectively.
On to `Cc1ncc(C(=O)N2CCc3cc(-c4cnc5[nH]cc(C)c5c4)cc([C@@H]4CCCN4)c3C2)cn1` [Compound Z328, (S)-[6-(3-methyl-1H-pyrrolo[2,3-b]pyridin-5-yl)-8-[pyrrolidin-2-yl]-3,4-dihydroisoquinolin-2(1H)-yl](2-methylpyrimidin-5-yl)methanone], for which the IC50 in assay [1] is 0.33 nM; in assay [2] it was 90.7 nM.
